Data published in article PMC5218480 (PLoS ONE, 2017).

Test system: MV-4-11 cells
Test: Gene expression microarray analysis (Affymetrix PrimeView) and GSEA
Type: cell-based, human
Set-up: RFU PODN (11730768_x_at) / Fold change /veh PODN (11730768_x_at) / RFU LINC00158 (11744669_a_at) / Fold change /veh LINC00158 (11744669_a_at) / RFU DUSP10 (11751237_a_at) / Fold change /veh DUSP10 (11751237_a_at) / RFU ID3 (11757404_x_at) / Fold change /veh ID3 (11757404_x_at) / RFU PLEKHG5 (11737974_s_at) / Fold change /veh PLEKHG5 (11737974_s_at) / RFU LRRC4B (11730491_at) / Fold change /veh LRRC4B (11730491_at) / RFU GIMAP4 (11747438_a_at) / Fold change /veh GIMAP4 (11747438_a_at) / RFU KRT8 (11758183_x_at) / Fold change /veh KRT8 (11758183_x_at) / RFU CNN1 (11734310_a_at) / Fold change /veh CNN1 (11734310_a_at) / RFU VPS37D (11726825_at) / Fold change /veh VPS37D (11726825_at) / RFU C10orf10 (11716522_x_at) / Fold change /veh C10orf10 (11716522_x_at) / RFU KIR2DL2 /// KIR2DL4 /// KIR2DL5A /// KIR2DL5B /// KIR2DS1 /// KIR2DS2 /// KIR2DS3 /// KIR2DS4 /// KIR3DL3 /// KIR3DL3 /// KIR3DS1 (11738374_at) / Fold change /veh KIR2DL2 /// KIR2DL4 /// KIR2DL5A /// KIR2DL5B /// KIR2DS1 /// KIR2DS2 /// KIR2DS3 /// KIR2DS4 /// KIR3DL3 /// KIR3DL3 /// KIR3DS1 (11738374_at) / RFU C1QL1 (11718748_at) / Fold change /veh C1QL1 (11718748_at) / RFU TMPRSS4 (11747572_a_at) / Fold change /veh TMPRSS4 (11747572_a_at) / RFU HAMP (11756126_x_at) / Fold change /veh HAMP (11756126_x_at) / RFU RNFT2 (11725882_a_at) / Fold change /veh RNFT2 (11725882_a_at) / RFU NR4A2 (11747474_a_at) / Fold change /veh NR4A2 (11747474_a_at) / RFU ABCC12 (11746883_a_at) / Fold change /veh ABCC12 (11746883_a_at) / RFU TMEM136 (11760407_x_at) / Fold change /veh TMEM136 (11760407_x_at) / RFU CLDN22 /// WWC2 (11732394_at) / Fold change /veh CLDN22 /// WWC2 (11732394_at) / RFU HLA-DPB1 (11760878_x_at) / Fold change /veh HLA-DPB1 (11760878_x_at) / RFU SPINT1 (11716480_a_at) / Fold change /veh SPINT1 (11716480_a_at) / RFU GAP43 (11754022_s_at) / Fold change /veh GAP43 (11754022_s_at) / RFU A4GNT (11735810_at) / Fold change /veh A4GNT (11735810_at) / RFU PRB3 (11715151_x_at) / Fold change /veh PRB3 (11715151_x_at) / RFU TUBB4B (11761932_at) / Fold change /veh TUBB4B (11761932_at) / RFU CAPN14 (11732068_a_at) / Fold change /veh CAPN14 (11732068_a_at) / RFU TMCC2 (11721928_a_at) / Fold change /veh TMCC2 (11721928_a_at) / RFU IRGQ (11745062_a_at) / Fold change /veh IRGQ (11745062_a_at) / RFU FAM174B (11720279_a_at) / Fold change /veh FAM174B (11720279_a_at) / RFU TMPRSS4 (11748680_a_at) / Fold change /veh TMPRSS4 (11748680_a_at) / RFU FAM212B (11763350_a_at) / Fold change /veh FAM212B (11763350_a_at) / RFU PLEKHG5 (11743358_a_at) / Fold change /veh PLEKHG5 (11743358_a_at) / RFU ZSCAN30 (11745921_a_at) / Fold change /veh ZSCAN30 (11745921_a_at) / RFU CMKLR1 (11741424_a_at) / Fold change /veh CMKLR1 (11741424_a_at) / RFU LOC101060620 /// MAPK8IP1 (11723275_at) / Fold change /veh LOC101060620 /// MAPK8IP1 (11723275_at) / RFU SPTSSB (11747773_x_at) / Fold change /veh SPTSSB (11747773_x_at) / RFU PRSS12 (11739890_at) / Fold change /veh PRSS12 (11739890_at) / RFU BIN1 (11741810_x_at) / Fold change /veh BIN1 (11741810_x_at) / RFU WNT11 (11732464_a_at) / Fold change /veh WNT11 (11732464_a_at) / RFU C10orf10 (11716521_a_at) / Fold change /veh C10orf10 (11716521_a_at) / RFU C5orf56 (11738089_at) / Fold change /veh C5orf56 (11738089_at) / RFU CYB561 (11721691_x_at) / Fold change /veh CYB561 (11721691_x_at) / RFU ANKRD19P (11752326_a_at) / Fold change /veh ANKRD19P (11752326_a_at) / RFU OR2T12 /// OR2T33 /// OR2T8 (11738714_s_at) / Fold change /veh OR2T12 /// OR2T33 /// OR2T8 (11738714_s_at) / RFU VCAN (11748164_a_at) / Fold change /veh VCAN (11748164_a_at) / RFU JSRP1 (11732532_at) / Fold change /veh JSRP1 (11732532_at) / RFU KRTAP10-11 (11738290_x_at) / Fold change /veh KRTAP10-11 (11738290_x_at) / RFU MYO3A (11730013_a_at) / Fold change /veh MYO3A (11730013_a_at) / RFU EBF3 (11725865_a_at) / Fold change /veh EBF3 (11725865_a_at) / RFU CAMK2N1 (11719241_x_at) / Fold change /veh CAMK2N1 (11719241_x_at) / RFU C5orf56 (11738088_a_at) / Fold change /veh C5orf56 (11738088_a_at) / RFU OLFML3 (11715873_a_at) / Fold change /veh OLFML3 (11715873_a_at) / RFU LOC100653217 /// NTM (11731650_a_at) / Fold change /veh LOC100653217 /// NTM (11731650_a_at) / RFU MAPK11 (11762145_a_at) / Fold change /veh MAPK11 (11762145_a_at) / RFU FIZ1 (11724087_x_at) / Fold change /veh FIZ1 (11724087_x_at) / RFU OASL (11726364_x_at) / Fold change /veh OASL (11726364_x_at) / RFU SOX15 (11748057_x_at) / Fold change /veh SOX15 (11748057_x_at) / RFU CD79A (11719716_a_at) / Fold change /veh CD79A (11719716_a_at) / RFU HIST1H1D (11736915_at) / Fold change /veh HIST1H1D (11736915_at) / RFU CASKIN2 (11723855_a_at) / Fold change /veh CASKIN2 (11723855_a_at) / RFU LOC730098 (11760151_x_at) / Fold change /veh LOC730098 (11760151_x_at) / RFU OR4N2 (11742367_at) / Fold change /veh OR4N2 (11742367_at) / RFU PRRT2 (11749266_a_at) / Fold change /veh PRRT2 (11749266_a_at) / RFU SNX32 (11753110_a_at) / Fold change /veh SNX32 (11753110_a_at) / RFU CDHR5 (11726645_a_at) / Fold change /veh CDHR5 (11726645_a_at) / RFU RCAN1 (11760418_a_at) / Fold change /veh RCAN1 (11760418_a_at) / RFU FAM167A (11723789_a_at) / Fold change /veh FAM167A (11723789_a_at) / RFU FAM26E (11764081_at) / Fold change /veh FAM26E (11764081_at) / RFU ISYNA1 (11749810_s_at) / Fold change /veh ISYNA1 (11749810_s_at) / RFU ACY1 (11761880_at) / Fold change /veh ACY1 (11761880_at) / RFU 11764098_at / Fold change /veh 11764098_at / RFU SAMD14 (11745864_x_at) / Fold change /veh SAMD14 (11745864_x_at) / RFU NPB (11741838_a_at) / Fold change /veh NPB (11741838_a_at) / RFU TMPRSS6 (11731388_a_at) / Fold change /veh TMPRSS6 (11731388_a_at) / RFU KRTAP10-2 (11738614_at) / Fold change /veh KRTAP10-2 (11738614_at) / RFU ARHGAP8 /// PRR5-ARHGAP8 (11727945_x_at) / Fold change /veh ARHGAP8 /// PRR5-ARHGAP8 (11727945_x_at) / RFU KRTAP5-7 /// NADSYN1 (11734609_at) / Fold change /veh KRTAP5-7 /// NADSYN1 (11734609_at) / RFU RASL12 (11751679_a_at) / Fold change /veh RASL12 (11751679_a_at) / RFU CDKN2B (11736163_a_at) / Fold change /veh CDKN2B (11736163_a_at) / RFU PRF1 (11729649_at) / Fold change /veh PRF1 (11729649_at) / RFU, ZNF638 /// ZNF638-IT1 / Fold change vs veh, ZNF638 /// ZNF638-IT1 / RFU, PANK3 / Fold change vs veh, PANK3 / RFU, SH3YL1 / Fold change vs veh, SH3YL1 / RFU, ZEB2 / Fold change vs veh, ZEB2 / RFU, NRIP1 / Fold change vs veh, NRIP1 / RFU, PTTG1IP / Fold change vs veh, PTTG1IP / RFU, CAPN2 / Fold change vs veh, CAPN2 / RFU, MED14 / Fold change vs veh, MED14 / RFU, SNORA58 / Fold change vs veh, SNORA58 / RFU, C1orf63 / Fold change vs veh, C1orf63 / RFU, LRRFIP1 / Fold change vs veh, LRRFIP1 / RFU, NDUFAF7 / Fold change vs veh, NDUFAF7 / RFU, SLC12A2 / Fold change vs veh, SLC12A2 / RFU, IBTK / Fold change vs veh, IBTK / RFU, ESF1 / Fold change vs veh, ESF1 / Fold change vs veh, TMEM50B / RFU, TAOK1 / Fold change vs veh, TAOK1 / RFU, ACBD3 / Fold change vs veh, ACBD3 / RFU, TMA16 / Fold change vs veh, TMA16 / RFU, RWDD3 / Fold change vs veh, RWDD3 / RFU, BCAT1 / Fold change vs veh, BCAT1 / RFU, EDEM3 / Fold change vs veh, EDEM3 / RFU, TMEM33 / Fold change vs veh, TMEM33 / RFU, WDR75 / Fold change vs veh, WDR75 / RFU, AHCTF1 / Fold change vs veh, AHCTF1 / RFU, TFRC / Fold change vs veh, TFRC / RFU, ZDHHC17 / Fold change vs veh, ZDHHC17 / RFU, NOM1 / Fold change vs veh, NOM1 / RFU, ARL8B / Fold change vs veh, ARL8B / RFU, ZBTB11 / Fold change vs veh, ZBTB11 / RFU, TAMM41 / Fold change vs veh, TAMM41 / RFU, KIAA1704 /// LOC100996395 / Fold change vs veh, KIAA1704 /// LOC100996395 / RFU, ING1 / Fold change vs veh, ING1 / RFU, TRMT61B / Fold change vs veh, TRMT61B / RFU, FUBP3 / Fold change vs veh, FUBP3 / RFU, TP53 / Fold change vs veh, TP53 / RFU, TNKS2 / Fold change vs veh, TNKS2 / RFU, ZFP14 / Fold change vs veh, ZFP14 / RFU, ACTR2 / Fold change vs veh, ACTR2 / RFU, PPP3R1 / Fold change vs veh, PPP3R1 / RFU, PIK3R1 / Fold change vs veh, PIK3R1 / RFU, HNRNPA1 / Fold change vs veh, HNRNPA1 / RFU, RNF170 / Fold change vs veh, RNF170 / RFU, ZNF28 / Fold change vs veh, ZNF28 / RFU, RNGTT / Fold change vs veh, RNGTT / RFU, OGT / Fold change vs veh, OGT / RFU, BRD1 / Fold change vs veh, BRD1 / RFU, MARS / Fold change vs veh, MARS / RFU, ZNF655 / Fold change vs veh, ZNF655 / RFU, FAHD1 / Fold change vs veh, FAHD1 / RFU, BDP1 / Fold change vs veh, BDP1 / RFU, LRRCC1 / Fold change vs veh, LRRCC1 / RFU, ARID1A / Fold change vs veh, ARID1A / RFU, ZNF146 / Fold change vs veh, ZNF146 / RFU, ZNF330 / Fold change vs veh, ZNF330 / RFU, GPN3 / Fold change vs veh, GPN3 / RFU, C9orf123 / Fold change vs veh, C9orf123 / RFU, N4BP2L2 / Fold change vs veh, N4BP2L2 / RFU, ARFIP1 / Fold change vs veh, ARFIP1 / RFU, FAM179B / Fold change vs veh, FAM179B / RFU, BCL10 / Fold change vs veh, BCL10 / RFU, UHRF1BP1L / Fold change vs veh, UHRF1BP1L / RFU, BET1 / Fold change vs veh, BET1 / RFU, CNOT2 / Fold change vs veh, CNOT2 / RFU, ZNF268 / Fold change vs veh, ZNF268 / Fold change vs veh, ZNF507 / RFU, DGCR2 / Fold change vs veh, DGCR2 / RFU, WDSUB1 / Fold change vs veh, WDSUB1 / Fold change vs veh, HSP90B1 /// MIR3652 / RFU, ADSS / Fold change vs veh, ADSS / RFU, GK / Fold change vs veh, GK / RFU, ZNF148 / Fold change vs veh, ZNF148 / RFU, TAF9 / Fold change vs veh, TAF9 / RFU, SLC1A5 / Fold change vs veh, SLC1A5 / RFU, SLMO2 / Fold change vs veh, SLMO2 / RFU, ABCC4 / Fold change vs veh, ABCC4 / RFU, LOC101060439 /// RAP1B / Fold change vs veh, LOC101060439 /// RAP1B / RFU, RFX7 / Fold change vs veh, RFX7 / RFU, GTPBP10 / Fold change vs veh, GTPBP10 / RFU, CNEP1R1 / Fold change vs veh, CNEP1R1 / RFU, BIVM-ERCC5 /// ERCC5 / Fold change vs veh, BIVM-ERCC5 /// ERCC5 / RFU, ILF3 / Fold change vs veh, ILF3 / RFU 11762660_at / Fold change /veh 11762660_at / RFU VCAN (11757783_s_at) / Fold change /veh VCAN (11757783_s_at) / RFU DDX43 (11728927_at) / Fold change /veh DDX43 (11728927_at) / RFU KRT8 (11758188_x_at) / Fold change /veh KRT8 (11758188_x_at) / RFU NKD1 (11759106_at) / Fold change /veh NKD1 (11759106_at) / RFU SRD5A1 (11742802_a_at) / Fold change /veh SRD5A1 (11742802_a_at) / RFU TPSAB1 /// TPSB2 (11721975_s_at) / Fold change /veh TPSAB1 /// TPSB2 (11721975_s_at) / RFU GSTM3 (11746129_a_at) / Fold change /veh GSTM3 (11746129_a_at) / RFU IL23R (11737362_x_at) / Fold change /veh IL23R (11737362_x_at) / RFU TMEM51 (11727254_a_at) / Fold change /veh TMEM51 (11727254_a_at) / RFU PIWIL2 (11732686_x_at) / Fold change /veh PIWIL2 (11732686_x_at) / RFU ORM1 (11744905_x_at) / Fold change /veh ORM1 (11744905_x_at) / RFU CCDC152 (11743942_at) / Fold change /veh CCDC152 (11743942_at) / RFU ECM1 (11717891_a_at) / Fold change /veh ECM1 (11717891_a_at) / RFU IL23R (11748794_a_at) / Fold change /veh IL23R (11748794_a_at) / RFU TNFAIP8L3 (11732012_x_at) / Fold change /veh TNFAIP8L3 (11732012_x_at) / RFU MBOAT4 (11741988_at) / Fold change /veh MBOAT4 (11741988_at) / RFU 11764193_at / Fold change /veh 11764193_at / RFU TMEM53 (11763286_at) / Fold change /veh TMEM53 (11763286_at) / RFU MAGEB2 (11727129_at) / Fold change /veh MAGEB2 (11727129_at) / RFU TMEM200A (11744735_a_at) / Fold change /veh TMEM200A (11744735_a_at) / RFU CCDC152 (11751479_a_at) / Fold change /veh CCDC152 (11751479_a_at) / RFU FAM211A (11726209_a_at) / Fold change /veh FAM211A (11726209_a_at) / RFU RGS16 (11746705_a_at) / Fold change /veh RGS16 (11746705_a_at) / RFU VCAN (11755009_s_at) / Fold change /veh VCAN (11755009_s_at) / RFU RHOB (11743442_s_at) / Fold change /veh RHOB (11743442_s_at) / RFU RGS16 (11720943_a_at) / Fold change /veh RGS16 (11720943_a_at) / RFU RGS16 (11720944_at) / Fold change /veh RGS16 (11720944_at) / RFU, VPS4B / Fold change vs veh, VPS4B / RFU, CREB1 / Fold change vs veh, CREB1 / RFU, DNAJC13 / Fold change vs veh, DNAJC13 / RFU, GNAQ / Fold change vs veh, GNAQ / RFU, CDK5R1 / Fold change vs veh, CDK5R1 / RFU, ZRANB3 / Fold change vs veh, ZRANB3 / RFU, CUL4A / Fold change vs veh, CUL4A / RFU, CCNY / Fold change vs veh, CCNY / RFU, UFL1 / Fold change vs veh, UFL1 / RFU, COG3 / Fold change vs veh, COG3 / RFU, DIAPH2 / Fold change vs veh, DIAPH2 / RFU, SKA2 / Fold change vs veh, SKA2 / RFU, AFF3 / Fold change vs veh, AFF3 / RFU, LMF1 / Fold change vs veh, LMF1 / RFU, IPO11 / Fold change vs veh, IPO11 / RFU, DFFB / Fold change vs veh, DFFB / RFU, FOXP1 / Fold change vs veh, FOXP1 / RFU, CARD8 / Fold change vs veh, CARD8 / RFU, STRN3 / Fold change vs veh, STRN3 / RFU, ADK / Fold change vs veh, ADK / RFU, RASSF2 / Fold change vs veh, RASSF2 / RFU, WIPF1 / Fold change vs veh, WIPF1 / RFU, LARP1B / Fold change vs veh, LARP1B / RFU, RASA1 / Fold change vs veh, RASA1 / RFU, RB1 / Fold change vs veh, RB1 / RFU, PPFIA1 / Fold change vs veh, PPFIA1 / RFU, MAT2A / Fold change vs veh, MAT2A / RFU, CCT5 / Fold change vs veh, CCT5 / RFU, WDR92 / Fold change vs veh, WDR92 / RFU, CUX1 / Fold change vs veh, CUX1 / RFU, TTC7A / Fold change vs veh, TTC7A / RFU, TMEM135 / Fold change vs veh, TMEM135 / RFU, DEPTOR / Fold change vs veh, DEPTOR / RFU, CPM / Fold change vs veh, CPM / RFU, DNAJB6 / Fold change vs veh, DNAJB6 / RFU, CACNA2D3 / Fold change vs veh, CACNA2D3 / RFU, DTX4 / Fold change vs veh, DTX4 / RFU, TFCP2 / Fold change vs veh, TFCP2 / RFU, GMCL1 /// GMCL1P1 / Fold change vs veh, GMCL1 /// GMCL1P1 / RFU, AEBP2 / Fold change vs veh, AEBP2 / RFU, SNHG1 /// SNORD22 /// SNORD25 /// SNORD26 /// SNORD27 /// SNORD28 /// SNORD29 /// SNORD31 / Fold change vs veh, SNHG1 /// SNORD22 /// SNORD25 /// SNORD26 /// SNORD27 /// SNORD28 /// SNORD29 /// SNORD31 / Fold change (Aza/veh), C12orf56 (ProbeSet 11735607_a_at) / Fold change (ACY-1035/veh), C12orf56 (ProbeSet 11735607_a_at) / Fold change (Aza/veh), FGFR1OP (ProbeSet 11751329_s_at) / Fold change (ACY-1035/veh), FGFR1OP (ProbeSet 11751329_s_at) / Fold change (Aza/veh), VPS36 (ProbeSet 11739960_a_at) / Fold change (ACY-1035/veh), VPS36 (ProbeSet 11739960_a_at) / RFU SYPL1 (11715823_x_at) / Fold change /veh SYPL1 (11715823_x_at) / RFU IGFBP7 (11715501_s_at) / Fold change /veh IGFBP7 (11715501_s_at) / RFU REEP3 (11722064_at) / Fold change /veh REEP3 (11722064_at) / RFU IGLL1 (11728026_x_at) / Fold change /veh IGLL1 (11728026_x_at): dose or concentration left out as unconfirmed
Conditions: MV-4-11 cells, 48 hours

## Nc1ncn([C@@H]2O[C@H](CO)[C@@H](O)[C@H]2O)c(=O)n1 [azacitidine]
  Fold change /veh TMEM200A (11744735_a_at): 1.56
